Results: article PMC7984390 (Journal of Clinical Pharmacology, 2020)
Several values for one entry are separate records, joined by “and”; a condition that tells them apart may be missing. Equal values may be shown once. Entries after “also recorded” stand apart in the source; their conditions may differ. One block for each compound: values may come before it.

Tests used:
[1] = Phase 1 study: iohexol plasma clearance as marker of GFR; format: in vivo, human; conditions: for Iohexol C0, arithmetic mean (CV%) / Iohexol CLsyst, arithmetic mean (CV%): iohexol iv
[2] = Phase 1 study: endogenous markers of renal function; format: in vivo, human
Phase 1 study: safety = format: in vivo, human; conditions: by treatment period; healthy subjects
[3] = cited from earlier work
[4] = combination treatment versus metformin alone
[5] = metformin alone or with tucatinib, n = 17
[6] = urine 0-24 h, metformin 850 mg oral, alone or with tucatinib, n = 17
[7] = treatment metformin + tucatinib, n = 17

Effect of tucatinib on GFR (iohexol clearance) ([1]; tucatinib 300 mg twice daily): unchanged; also recorded: unaffected
Effect of tucatinib on cystatin C-based eGFR ([2]; tucatinib 300 mg twice daily): unchanged
Effect of tucatinib on metformin Cmax (tucatinib 300 mg twice daily coadministered with metformin 850 mg): no effect
SMILES: Cc1cc(Nc2ncnc3ccc(NC4=NC(C)(C)CO4)cc23)ccc1Oc1ccn2ncnc2c1 [Tucatinib]
Proportion of subjects who experienced TEAEs (Phase 1 study: safety): 33.3%
Patients with adverse event of elevated serum creatinine concentration ([3]; tucatinib arm (with trastuzumab and capecitabine), HER2CLIMB): 13.9%
Patients with increased creatinine as a laboratory abnormality ([3]; tucatinib arm, all grade 1 or 2): 33%

GFR, arithmetic mean (CV%) ([1]; calculated from iohexol plasma clearance, n = 17): 94.99 (17.4) mL/min/1.73 m^2
Mean eGFR derived from cystatin C, 12 hours postdose [2, 4]: 97.9 mL/min/1.73 m^2
Mean eGFR derived from cystatin C, premetformin dose [2, 4]: 101.4 mL/min/1.73 m^2
Mean CrCl 24 hours postdose ([2]; day 2 (after metformin alone) versus day 9 (in the presence of tucatinib)): 152.3 mL/min
Mean cystatin C concentration prior to metformin dosing ([2]; metformin alone (day 1) versus tucatinib coadministration (day 8)): 0.846 mg/L
Mean cystatin C concentration 12 hours postmetformin dosing ([2]; metformin alone versus metformin and tucatinib): 0.881 mg/L
Tmax (human, plasma, oral, 850 mg): 1.5 to 4 h
Cmax (human, plasma, po, 850 mg): 1300 ng/mL
Metformin CLrenal, arithmetic mean (CV%) (metformin 850 mg oral, alone or with tucatinib 300 mg twice daily, n = 17): 30.0 (27.0) L/h
Metformin CL/F, geometric LSM [5]: 102.0 L/h
Metformin VzF, geometric LSM [5]: 664.7 L
Ae0‐24, amount of metformin excreted unchanged in urine, arithmetic mean (CV%) [6]: 242.6 (26.5) mg
Fe0‐24, cumulative fraction of metformin excreted unchanged in urine, arithmetic mean (CV%) [6]: 28.54% and 28.5 (26.5) %
SMILES: CN(C)C(=N)N=C(N)N [Metformin]
Proportion of subjects who experienced TEAEs (Phase 1 study: safety): 38.9%

Iohexol C0, arithmetic mean (CV%) [1, 7]: 178.5 (21.5) µg/mL
Iohexol CLsyst, arithmetic mean (CV%) [1, 7]: 129.0 (22.0) mL/min
Iohexol C0, arithmetic mean (CV%) ([1]; treatment metformin, n = 17): 175.6 (18.0) µg/mL
Iohexol CLsyst, arithmetic mean (CV%) ([1]; treatment metformin, n = 17): 129.8 (22.7) mL/min
SMILES: CC(=O)N(CC(O)CO)c1c(I)c(C(=O)NCC(O)CO)c(I)c(C(=O)NCC(O)CO)c1I (stereo not drawn) [Iohexol]
